Ends that are not written are not given here.
Test system: cells of rat pituitary glands
Assay: in vitro assay of growth hormone release from cultured rat pituitary cells, side-by-side with the hpGRF(1-40)-OH standard
Type: cell-based
Conditions: potency for GH release relative to hGRF(1-40)-OH standard = 1.0; equimolar concentrations; rat pituitary cell cultures; incubation 3 to 4 hours; ir GH by radioimmunoassay; limits in brackets
Method: To determine the relative effectiveness of certain representative synthetic peptides to promote the release of growth hormone, in vitro assays are carried out using synthetic hpGRF(1-40)-OH as a standard in side-by-side comparison with equimolar concentrations of the representative analogs which have been synthesized. Cultures are used which include cells of rat pituitary glands removed some three to five days previously. Such cultures are considered optimal for the secretion of growth hormone and are used for the comparative testing, in the general manner described in Vale et al. Endocrinology, 91, 562-572 (1972) and as more particularly described in Vale et al. Endocrinology, 112, 1553-1555 (1983). Incubation with the substance to be tested is carried out for 3 to 4 hours, and aliquots of the culture medium are removed and processed to measure their contents in immunoreactive GH(ir GH) by a well-characterized radioimmunoassay.

| Substance | In Vitro Potencies |
| --- | --- |
| [N^a MeTyr^1, Ala^15, CMA^19, Nle^27, Asn^28 ]-hGRF(1-29)-NH2 | 7.07 (3.8-13.6) |
| [N^a MeTyr^1, Ala^15, CML^17, Nle^27, Asn^28 ]-hGRF(1-29)-NH2 | 5.41 (3.5-8.3) |
| [N^a MeTyr^1, Ala^15, CML^22, Nle^27, Asn^28 ]-hGRF(1-29)-NH2 | 7.18 (4.1-12.7) |
| [N^a MeTyr^1, Ala^15, CML^23, Nle^27, Asn^28 ]-hGRF(1-29)-NH2 | 1.96 (1.1-3.3) |
| [N^a MeTyr^1, Ala^15, CML^26, Nle^27, Asn^28 ]-hGRF(1-29)-NH2 | 6.44 (4.0-10.3) |
| [N^a MeTyr^1, CMA^13, Ala^15, Nle^27, Asn^28 ]-hGRF(I-29)-NH2 | 2.24 (1.4-3.4) |
| [N^a MeTyr^1, CML^5, Ala^15, Nle^27, Asn^28 ]-hGRF(1-29)-NH2 | 3.59 (2.3-5.5) |
| hGRF(1-40)--OH: synthetic human pancreatic/hypothalamic GH releasing factor (1-40) free acid, used as the standard in the in vitro and in vivo tests (YADAIFTNSYRKVLGQLSARKLLQDIMSRQQGESNQERGA-OH; UniProt P01286 32-71, looked up, fragment) [reference compound] | 1.0 |

Source: US5098995A, “GRF Analogs VIIA” (The Salk Institute For Biological Studies, priority 1989, dated 1992)
